Reference: patent US7652047B2, “Phenylamino isothiazole carboxamidines as MEK inhibitors” (Ardea Biosciences, Inc., priority 2005, dated 2010)

Molecular target: T1, MEK1^CA (human GST-MEK1, constitutively active, Ser218Asp and Ser222Asp) (Homo sapiens, UniProt Q02750, S218D/S222D)
T1 construct: GST; made in house; host or cells: Escherichia coli
Assay: MEK1 enzymatic activity assay (MEK1^CA / ERK2 / MBP, [γ-33P]ATP incorporation)
Type: biochemical
Conditions: Table 1, compounds of formula I; read-out: Avg IC50
In short: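 Cascade assay: 25 µl reactions with 0.002 nmol E. coli-expressed GST-MEK1 S218D/S222D, 0.02 nmol His-tagged mouse ERK2, 0.25 nmol MBP, 0.25 nmol unlabeled ATP and 0.1 µCi [γ-33P]ATP. Compound preincubated 30 min at ambient temperature with MEK1/ERK2; stopped with TCA, 33P-labelled protein filter-captured and scintillation-counted.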

T1 sequence (Q02750 whole entry S218D/S222D): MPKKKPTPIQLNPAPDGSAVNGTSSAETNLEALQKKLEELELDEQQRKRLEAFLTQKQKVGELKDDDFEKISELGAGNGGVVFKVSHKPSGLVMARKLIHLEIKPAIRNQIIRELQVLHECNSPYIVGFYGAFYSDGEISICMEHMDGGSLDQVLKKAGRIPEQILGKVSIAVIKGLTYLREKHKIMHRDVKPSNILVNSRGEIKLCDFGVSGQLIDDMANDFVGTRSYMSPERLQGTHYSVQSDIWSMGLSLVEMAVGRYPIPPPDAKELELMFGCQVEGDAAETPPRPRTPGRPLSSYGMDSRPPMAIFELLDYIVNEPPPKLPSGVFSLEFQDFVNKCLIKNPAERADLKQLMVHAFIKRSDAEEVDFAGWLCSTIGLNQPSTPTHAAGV

SMILES	IC50 [nM]
CC(CNC(=N)c1c(O)nsc1Nc1ccc(Oc2ccccc2)cc1)c1ccccc1 (stereo not drawn) [Cpd 15]	1 to 100
N=C(NCc1cccc2ccccc12)c1c(O)nsc1Nc1ccc(Oc2ccccc2)cc1 [compound 45]	1 to 100
N=C(NCc1cccc2ccccc12)c1c(O)nsc1Nc1cccc(Cl)c1Cl [compound 105]	> 500
CC1(C)OCC(CNC(=N)c2c(O)nsc2Nc2ccc(Oc3ccccc3)cc2)O1 (stereo not drawn) [compound 47]	1 to 100
CCCCCCCCCCOCC(O)CNC(=N)c1c(O)nsc1Nc1ccc(Oc2ccccc2)cc1 (stereo not drawn) [compound 187]	> 500
N=C(NCC1CCCCC1)c1c(O)nsc1Nc1ccc(Cl)nc1 [compound 126]	> 500
Cc1cc(Oc2cccc(C(F)(F)F)c2)ccc1Nc1snc(O)c1C(=N)NC(C)C [compound 437]	1 to 100
N=C(NCC(O)c1cccc(O)c1)c1c(O)nsc1Nc1ccc(Oc2ccccc2)cc1 (stereo not drawn) [compound 166]	1 to 100
Cc1cc(Oc2cc(F)cc(F)c2)ccc1Nc1snc(O)c1C(=N)NCC(O)CO (stereo not drawn) [compound 466]	1 to 100
CC(Nc1snc(O)c1C(=N)NCC1CCCCC1)c1ccccc1 (stereo not drawn) [compound 118]	> 500
N=C(NCC1CCCCC1)c1c(O)nsc1Nc1ccc(OCc2ccccc2)cc1 [compound 61]	100 to 500
N=C(NCC1CCCCC1)c1c(O)nsc1Nc1cccc(Oc2ccccc2)c1 [compound 83]	100 to 500
Oc1nsc(Nc2ccc(Oc3ccccc3)cc2)c1-c1nnn[nH]1 [compound 136]	> 500
N=C(NCC1CC1)c1c(O)nsc1Nc1ccc(Oc2ccccc2)cc1 [Cpd 19]	1 to 100
Cc1cc(Nc2snc(O)c2C(=N)NC(C)C)ccc1Oc1ccc(C(F)(F)F)cc1 [compound 389]	> 500
Cc1cc(Oc2cccc(F)c2F)ccc1Nc1snc(O)c1C(=N)NO [compound 500]	1 to 100
N=C(NCC1CCCCC1)c1c(O)nsc1Nc1ccc(Oc2cc(F)cc(F)c2)cc1 [compound 423]	1 to 100
CC(C)NC(=N)c1c(O)nsc1Nc1ccc(Oc2ccccc2)nc1 [compound 257]	> 500
CC(CO)NC(=N)c1c(O)nsc1Nc1ccc(Oc2ccc(Cl)cc2Cl)c(F)c1 (stereo not drawn) [compound 374]	1 to 100
CC(C)NC(=N)c1c(O)nsc1Nc1ccc2c(c1)Cc1ccccc1-2 [compound 227]	> 500
CCC[C@H]1CC[C@H](c2ccc(Nc3s[nH]c(=O)c3C(N)=NCC(O)CO)cc2)CC1 (stereo partly drawn) [compound 63]	100 to 500
N=C(NCCO)c1c(O)nsc1Nc1ccc(I)cc1 [compound 217]	> 500
COc1cccc(F)c1Oc1ccc(Nc2snc(O)c2C(=N)NC(C)CO)cc1 (stereo not drawn) [compound 281]	100 to 500
CC(C)NC(=N)c1c(O)nsc1Nc1ccc(Oc2cccc(Br)c2)cc1 [compound 250]	1 to 100
CCC(C)CNC(=N)c1c(O)nsc1Nc1ccc(Oc2ccccc2)cc1 (stereo not drawn) [compound 52]	1 to 100

SMILES	IC50 [nM]
N=C(NCC(O)O)c1c(O)nsc1Nc1ccc(Oc2ccc(Cl)cc2Cl)cc1 [compound 229]	1 to 100
C[C@H](NC(=N)c1c(O)nsc1Nc1ccc(Oc2ccccc2)cc1)c1ccccc1 [compound 34]	100 to 500
N=C(c1c(O)nsc1Nc1ccc(Oc2ccccc2)cc1)N(O)Cc1ccccc1 [compound 138]	100 to 500
CC(CO)NC(=N)c1c(O)nsc1Nc1ccc(OC2CCCCC2)cc1 (stereo not drawn) [compound 220]	> 500
Cc1cc(Oc2cc(Cl)ccc2Cl)ccc1Nc1snc(O)c1C(=N)NC(C)C [compound 460]	1 to 100
N=C(NCCCCO)c1c(O)nsc1Nc1ccc(Oc2ccc(Cl)cc2)cc1 [compound 158]	100 to 500
COc1ccc(Oc2ccc(Nc3snc(O)c3C(=N)NCC3CCCCC3)cc2)cc1 [compound 141]	100 to 500
COCC(C)NC(=N)c1c(O)nsc1Nc1ccc(Oc2cccc(F)c2F)cc1C (stereo not drawn) [compound 502]	1 to 100
CC(CO)NC(=N)c1c(O)nsc1Nc1ccc(Oc2ccccc2Cl)c(F)c1 (stereo not drawn) [compound 278]	1 to 100
CC(C)NC(=N)c1c(O)nsc1Nc1ccc(OC2CCNCC2)cc1 [compound 253]	> 500
CC(C)NC(=N)c1c(O)nsc1Nc1ccc(Oc2ccc(F)cc2)c(Cl)c1 [compound 387]	100 to 500
COc1ccc(-c2ccccc2)cc1Nc1snc(O)c1C(=N)NCC1CCCCC1 [compound 62]	> 500
N=C(NN1CCOCC1)c1c(O)nsc1Nc1ccc(Oc2ccccc2)cc1 [Cpd 6]	1 to 100
N=C(NCCN1CCOCC1)c1c(Nc2ccc(Oc3ccccc3)cc2)s[nH]c1=O [Cpd 26]	> 500
CC(CO)/N=C(\N)c1c(O)nsc1Nc1ccc(Oc2ccccc2)cc1 (stereo not drawn) [compound 154]	1 to 100
CC(C)CCNC(=N)c1nsc(Nc2ccc(Oc3ccccc3)cc2)c1O [compound 43]	1 to 100
Cc1cccc(Oc2ccc(Nc3snc(O)c3C(=N)NC(C)CO)cc2)c1C (stereo not drawn) [compound 346]	1 to 100
N=C(NCc1ccc(C(F)(F)F)nc1)c1c(O)nsc1Nc1cccc(Oc2ccccc2)c1 [compound 182]	100 to 500
N=C(NCc1ccccc1)c1c(O)nsc1Nc1ccc(Oc2ccccc2)cc1 [Cpd 20]	100 to 500
COc1cccc(F)c1Oc1ccc(Nc2snc(O)c2C(=N)NC(C)C)cc1 [compound 270]	> 500
N=C(N[C@@H]1CCCC[C@H]1O)c1c(O)nsc1Nc1ccc(Oc2ccccc2)cc1 [compound 167]	100 to 500
CC(C)NC(=N)c1c(O)nsc1Nc1ccc(Oc2ccccc2Br)c(Cl)c1 [compound 290]	1 to 100
CCC[C@H]1CC[C@H](c2ccc(Nc3snc(O)c3C(=N)NCC(C)(C)CO)cc2)CC1 [compound 165]	100 to 500
CNC(=N)c1c(O)nsc1Nc1ccc(Oc2ccccc2)cc1 [compound 198]	1 to 100
N=C(NCc1ccccc1)c1c(O)nsc1Nc1ccc(Oc2cc(F)cc(F)c2)cc1 [compound 424]	1 to 100

SMILES	IC50 [nM]
N=C(NCCCO)c1c(O)nsc1Nc1ccc(Oc2ccccc2)cc1 [compound 31]	1 to 100
Cc1cc(Oc2ccc(Cl)cc2F)ccc1Nc1snc(O)c1C(=N)NC(C)C [compound 402]	1 to 100
CN(C)CCNC(=N)c1c(O)nsc1Nc1ccc(Oc2ccccc2)cc1 [compound 147]	100 to 500
N#CNC(=N)c1c(O)nsc1Nc1ccc(Oc2ccccc2)cc1 [compound 162]	> 500
N=C(NCC(O)O)c1c(O)nsc1Nc1ccc(Oc2ccc(F)cc2)cc1 [compound 203]	> 500
N=C(NCCO)c1c(O)nsc1Nc1ccc(Oc2cc(F)cc(F)c2)cc1 [compound 411]	100 to 500
N=C(NCc1ccc(C(F)(F)F)cc1)c1c(O)nsc1Nc1ccc(Oc2ccccc2)cc1 [Cpd 21]	1 to 100
N#Cc1cccc(Nc2snc(O)c2C(N)=NCC2CCCCC2)c1 [compound 71]	> 500
CNC(=N)c1c(O)nsc1Nc1ccc(Oc2ccc(Cl)cc2Cl)cc1 [compound 231]	100 to 500
N=C(NCC1CCCCC1)c1c(O)nsc1Nc1ccc([N+](=O)[O-])cc1O [compound 89]	> 500
CC(C)NC(=N)c1c(O)nsc1Nc1ccc(Oc2ccc(F)cc2)c(Br)c1 [compound 242]	100 to 500
Cc1ccc(Nc2sncc2C(=N)NC2CCCC2)cc1 [compound 56]	> 500
CC(C)NC(=N)c1c(O)nsc1Nc1cc(Cl)cc(Cl)c1 [compound 224]	100 to 500
N=C(NCC1CCCCC1)c1c(O)nsc1Nc1ccc(OC(F)F)cc1 [compound 95]	> 500
CC(CO)NC(=N)c1c(O)nsc1Nc1ccc(Oc2ccc(F)cc2Cl)c(F)c1 (stereo not drawn) [compound 370]	1 to 100
CC(CO)NC(=N)c1c(O)nsc1Nc1ccc(Oc2c(F)ccc(F)c2Cl)cc1 (stereo not drawn) [compound 323]	100 to 500
Cc1cc(Oc2cccc(F)c2F)ccc1Nc1snc(O)c1C(=N)NC(CO)C(C)C (stereo not drawn) [compound 503]	100 to 500
Cc1cc(Oc2cccc(C(F)(F)F)c2)ccc1Nc1snc(O)c1C(=N)NO [compound 471]	> 500
N=C(NCC1(O)CCCCC1)c1c(O)nsc1Nc1ccc(Oc2ccccc2)cc1 [compound 189]	100 to 500
CC[C@H](CO)NC(=N)c1c(O)nsc1Nc1ccc(Oc2cc(F)cc(F)c2)cc1C [compound 469]	1 to 100
C[C@H](CO)NC(=N)c1c(O)nsc1Nc1ccc(Oc2ccccc2)cc1 [compound 175]	1 to 100
CC(C)OCCCNC(=N)c1c(O)nsc1Nc1ccc(Oc2ccccc2)cc1 [compound 51]	1 to 100
CC(C)NC(=N)c1c(O)nsc1Nc1ccc(/C=C/c2ccccc2)cc1 [compound 241]	100 to 500
CN(C)CCNC(=N)c1c(O)nsc1Nc1ccc(Oc2ccc(Cl)cc2Cl)cc1 [compound 425]	100 to 500
N=C(NCCC1=CCCCC1)c1c(O)nsc1Nc1ccc(Oc2ccccc2)cc1 [Cpd 13]	1 to 100

Same assay, conditions: Table 2, Ar1-A contains an amido or indolo group; read-out: IC 50

SMILES	IC50 [nM]
N=C(N)c1c(O)nsc1Nc1ccc(C(=O)N2CCc3cc(Br)ccc32)cc1 [E-20]	1 to 200
N=C(NCC(O)CO)c1c(O)nsc1Nc1ccc(C(=O)N2CCc3ccccc32)cc1 (stereo not drawn) [E-12]	200 to 1000
CNC(=N)c1c(O)nsc1Nc1ccc(C(=O)N2CCc3cc(F)ccc32)cc1 [E-22]	> 1000
N=C(NCC1CCCCC1)c1c(O)nsc1Nc1ccc(C(=O)Nc2ccccc2)cc1 [E-4]	> 1000
N=C(NCC1CCCCC1)c1c(O)nsc1Nc1ccc(S(=O)(=O)Nc2ccccc2)cc1 [E-2]	> 1000

Same assay, conditions: Table 4, R' is (CH2)1 or 2-G; read-out: IC50

SMILES	IC50 [nM]
N=C(NCC1CCCCC1)c1c(O)nsc1Nc1ccc(Oc2ccccc2)nc1 [drawing 828]	100 to 500
Cc1ccc(Oc2ccc(Nc3snc(O)c3C(=N)NCC3CCCCC3)cn2)cn1 [drawing 825]	> 500
N=C(NCCN1CCNCC1)c1c(O)nsc1Nc1ccc(Oc2cc(F)cc(F)c2)cc1 [drawing 829]	1 to 100
Cc1ccc(Oc2ccc(Nc3snc(O)c3C(=N)NCC3CCCCC3)cc2)cn1 [drawing 824]	100 to 500
